Laboratory results published in ChEMBL document CHEMBL1255530, “3D-QSAR CoMFA study of benzoxazepine derivatives as mGluR5 positive allosteric modulators” (Bioorg Med Chem Lett, 2010).

molecular target: Metabotropic glutamate receptor 5 (Rattus norvegicus, UniProt P31424); assay: Positive allosteric modulation of rat mGluR5 expressed in HEK293 cells
Sequence (P31424 whole entry): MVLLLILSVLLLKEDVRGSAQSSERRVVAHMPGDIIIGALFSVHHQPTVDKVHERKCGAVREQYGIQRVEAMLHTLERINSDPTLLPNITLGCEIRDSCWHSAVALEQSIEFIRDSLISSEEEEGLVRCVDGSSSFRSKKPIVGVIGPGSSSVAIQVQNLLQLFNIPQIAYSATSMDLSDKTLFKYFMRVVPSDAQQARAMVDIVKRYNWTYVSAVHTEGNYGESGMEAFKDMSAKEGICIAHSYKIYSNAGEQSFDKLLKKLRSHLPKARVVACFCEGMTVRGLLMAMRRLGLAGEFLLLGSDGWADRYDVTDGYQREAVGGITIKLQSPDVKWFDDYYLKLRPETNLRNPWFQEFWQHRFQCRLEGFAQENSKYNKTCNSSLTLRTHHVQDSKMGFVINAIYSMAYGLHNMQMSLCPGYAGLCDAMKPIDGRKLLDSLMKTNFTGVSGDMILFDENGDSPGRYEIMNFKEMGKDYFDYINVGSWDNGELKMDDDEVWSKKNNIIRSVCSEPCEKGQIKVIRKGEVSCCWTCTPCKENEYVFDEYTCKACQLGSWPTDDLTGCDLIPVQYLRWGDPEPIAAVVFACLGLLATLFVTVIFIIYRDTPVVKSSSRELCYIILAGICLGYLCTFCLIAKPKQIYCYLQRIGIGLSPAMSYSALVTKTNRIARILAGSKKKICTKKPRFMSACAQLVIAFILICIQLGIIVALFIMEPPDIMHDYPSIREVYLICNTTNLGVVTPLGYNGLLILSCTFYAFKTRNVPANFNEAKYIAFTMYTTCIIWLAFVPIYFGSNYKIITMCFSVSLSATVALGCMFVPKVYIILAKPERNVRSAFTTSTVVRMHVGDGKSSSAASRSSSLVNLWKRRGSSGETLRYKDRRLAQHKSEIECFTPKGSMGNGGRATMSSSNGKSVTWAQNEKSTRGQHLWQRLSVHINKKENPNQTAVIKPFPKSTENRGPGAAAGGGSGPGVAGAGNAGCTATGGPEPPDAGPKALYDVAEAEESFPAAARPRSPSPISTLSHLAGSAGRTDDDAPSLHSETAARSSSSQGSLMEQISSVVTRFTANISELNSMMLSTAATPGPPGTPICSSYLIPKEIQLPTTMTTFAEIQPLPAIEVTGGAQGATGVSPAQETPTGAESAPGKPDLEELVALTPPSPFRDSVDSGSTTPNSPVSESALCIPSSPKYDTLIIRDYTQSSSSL

Q: CCC(=O)N1c2ccccc2-c2nnc(SC)nc2O[C@H]1c1ccccc1OC was tested. Which EC50 did it give?
A: 562 nM

Q: How did the EC50 turn out when C=CCOc1ccc([C@@H]2Oc3nc(SC)nnc3-c3ccccc3N2C(C)=O)cc1 was run?
A: 2570 nM

Q: For CCCCSc1nnc2c(n1)O[C@@H](c1cccn1C)N(C(C)=O)c1ccccc1-2, which EC50 is on record?
A: 692 nM

Q: For C=CCSc1nnc2c(n1)O[C@@H](c1sccc1C)N(C(C)=O)c1ccccc1-2, which EC50 is on record?
A: 457 nM

Q: For CCC(=O)Oc1ccc(Cl)cc1[C@@H]1Oc2nc(SC)nnc2-c2ccccc2N1C(=O)CC, which EC50 is on record?
A: 3240 nM

Q: Which EC50 does the source give for C=CCSc1nnc2c(n1)O[C@@H](c1ccc(N(C)C)cc1)N(C(C)=O)c1ccccc1-2 here?
A: 3160 nM

Q: How did the EC50 turn out when CSc1nnc2c(n1)O[C@@H](c1ccc(OC(C)=O)c(Br)c1)N(C(C)=O)c1ccccc1-2 was run?
A: 3800 nM

Q: How did the EC50 turn out when CSc1nnc2c(n1)O[C@@H](c1ccccn1)N(C(C)=O)c1ccccc1-2 was run?
A: 5250 nM

Q: How did the EC50 turn out when CCC(=O)N1c2ccccc2-c2nnc(SC)nc2O[C@H]1c1cc(Br)c(OC)c(OC)c1 was run?
A: 1230 nM

Q: For CCSc1nnc2c(n1)O[C@@H](c1ccccc1F)N(C(C)=O)c1ccccc1-2, which EC50 is on record?
A: 398 nM

Q: With C=CCSc1nnc2c(n1)O[C@@H](c1cccs1)N(C(C)=O)c1ccccc1-2 as the compound, how does the EC50 read?
A: 316 nM

Q: Which EC50 does the source give for COc1ccc(OC)c([C@@H]2Oc3nc(SC)nnc3-c3ccccc3N2C(C)=O)c1 here?
A: 891 nM

Q: CCSc1nnc2c(n1)O[C@@H](c1ccc(C)s1)N(C(C)=O)c1ccccc1-2 was tested. Which EC50 did it give?
A: 1200 nM

Q: CCC(=O)N1c2ccccc2-c2nnc(SC)nc2O[C@H]1c1ccccc1F was tested. Which EC50 did it give?
A: 1780 nM

Q: CCC(=O)N1c2ccccc2-c2nnc(SC)nc2O[C@H]1c1cccc(C)n1 was tested. Which EC50 did it give?
A: 2340 nM

Q: With CCCSc1nnc2c(n1)O[C@@H](c1cccn1C)N(C(C)=O)c1ccccc1-2 as the compound, how does the EC50 read?
A: 347 nM

Q: With CCCSc1nnc2c(n1)O[C@H](c1ccccc1OC(C)=O)N(C(C)=O)c1ccccc1-2 as the compound, how does the EC50 read?
A: 1320 nM

Q: CCC(=O)N1c2ccccc2-c2nnc(SC)nc2O[C@H]1c1ccccc1Br was tested. Which EC50 did it give?
A: 1350 nM

Q: With CCC(=O)N1c2ccccc2-c2nnc(SC)nc2O[C@H]1c1ccccc1C as the compound, how does the EC50 read?
A: 2000 nM

Q: Which EC50 does the source give for CCCCOc1ccccc1[C@@H]1Oc2nc(SC)nnc2-c2ccccc2N1C(=O)CC here?
A: 3720 nM

Q: With CSc1nnc2c(n1)O[C@@H](c1c(C)[nH]c3ccccc13)N(C(C)=O)c1ccccc1-2 as the compound, how does the EC50 read?
A: 4070 nM

Q: CCC(=O)N1c2ccccc2-c2nnc(SC)nc2O[C@H]1c1ccco1 was tested. Which EC50 did it give?
A: 4270 nM

Q: With CSc1nnc2c(n1)O[C@@H](c1ccccc1F)N(C(C)=O)c1ccccc1-2 as the compound, how does the EC50 read?
A: 3470 nM

Q: For CSc1nnc2c(n1)O[C@@H](c1cccc(F)c1)N(C(C)=O)c1ccccc1-2, which EC50 is on record?
A: 1260 nM

Q: How did the EC50 turn out when CSc1nnc2c(n1)O[C@@H](c1cccn1C)N(C(C)=O)c1ccccc1-2 was run?
A: 9550 nM

Q: For C=CCSc1nnc2c(n1)O[C@@H](c1ccccn1)N(C(=O)CC)c1ccccc1-2, which EC50 is on record?
A: 437 nM

Q: With CCCCSc1nnc2c(n1)O[C@@H](c1cccc(C)n1)N(C(C)=O)c1ccccc1-2 as the compound, how does the EC50 read?
A: 617 nM

Q: Which EC50 does the source give for CCSc1nnc2c(n1)O[C@@H](c1ccc(N(C)C)cc1)N(C(C)=O)c1ccccc1-2 here?
A: 4270 nM

Q: For CCSc1nnc2c(n1)O[C@@H](c1ccc(OC)cc1OC)N(C(C)=O)c1ccccc1-2, which EC50 is on record?
A: 490 nM

Q: Which EC50 does the source give for CCCC(=O)N1c2ccccc2-c2nnc(SC)nc2O[C@H]1c1ccc(C)o1 here?
A: 2240 nM

Q: With C=CCSc1nnc2c(n1)O[C@@H](c1cccs1)N(C(=O)CC)c1ccccc1-2 as the compound, how does the EC50 read?
A: 57.5 nM

Q: For CCC(=O)Oc1ccc(Br)c([C@@H]2Oc3nc(SC)nnc3-c3ccccc3N2C(=O)CC)c1, which EC50 is on record?
A: 5750 nM

Q: With C=CCSc1nnc2c(n1)O[C@@H](c1cccnc1)N(C(C)=O)c1ccccc1-2 as the compound, how does the EC50 read?
A: 832 nM

Q: For COc1ccc([C@@H]2Oc3nc(SC)nnc3-c3ccccc3N2C(C)=O)cc1, which EC50 is on record?
A: 2750 nM

Q: CCCC(=O)N1c2ccccc2-c2nnc(SC)nc2O[C@H]1c1sccc1C was tested. Which EC50 did it give?
A: 1860 nM

Q: Which EC50 does the source give for CCOc1ccc(Br)cc1[C@@H]1Oc2nc(SC)nnc2-c2ccccc2N1C(=O)CC here?
A: 398 nM

Q: For CCSc1nnc2c(n1)O[C@H](c1ccc(OC(C)=O)c(OC)c1)N(C(C)=O)c1ccccc1-2, which EC50 is on record?
A: 1000 nM

Q: Which EC50 does the source give for CCCSc1nnc2c(n1)O[C@@H](c1ccncc1)N(C(C)=O)c1ccccc1-2 here?
A: 490 nM

Q: With CCSc1nnc2c(n1)O[C@@H](c1ccc(OC)c(Br)c1)N(C(C)=O)c1ccccc1-2 as the compound, how does the EC50 read?
A: 955 nM

Q: For CCCCSc1nnc2c(n1)O[C@@H](c1ccsc1)N(C(C)=O)c1ccccc1-2, which EC50 is on record?
A: 479 nM

Q: For CCSc1nnc2c(n1)O[C@H](c1ccccc1C)N(C(C)=O)c1ccccc1-2, which EC50 is on record?
A: 2040 nM

Q: For CCC(=O)N1c2ccccc2-c2nnc(SC)nc2O[C@H]1c1cc(Cl)c(OC)c(OC)c1, which EC50 is on record?
A: 1200 nM

Q: Which EC50 does the source give for CCC(=O)N1c2ccccc2-c2nnc(SC)nc2O[C@H]1c1cc(Cl)ccc1OC here?
A: 759 nM

Q: How did the EC50 turn out when CCSc1nnc2c(n1)O[C@@H](c1ccc(OC(C)=O)cc1)N(C(C)=O)c1ccccc1-2 was run?
A: 813 nM

Q: Which EC50 does the source give for CCSc1nnc2c(n1)O[C@@H](c1cc(Br)ccc1OC)N(C(=O)CC)c1ccccc1-2 here?
A: 813 nM

Q: C=CCSc1nnc2c(n1)O[C@@H](/C=C/c1cccs1)N(C(C)=O)c1ccccc1-2 was tested. Which EC50 did it give?
A: 229 nM

Q: How did the EC50 turn out when CCCSc1nnc2c(n1)O[C@@H](c1ccccc1OC)N(C(C)=O)c1ccccc1-2 was run?
A: 158 nM

Q: With CCC(=O)N1c2ccccc2-c2nnc(SC)nc2O[C@H]1c1cc(OC)ccc1OC as the compound, how does the EC50 read?
A: 191 nM
